# Measurements as given in patent publication US20260242843A1, “ASSAY SYSTEM FOR […] ANTIVIRAL AGENT USING INHIBITION OF VIRUS-DERIVED PROTEASE AS INDICATOR” (TOYAMA PREFECTURAL UNIVERSITY, priority 2023, published 2026).
# What was measured:
# IAPV protease = experiment: Measurement of IAPV protease activity using purified enzyme (fluorescent peptide substrate); assay type: biochemical, Israeli acute paralysis virus (IAPV); conditions: inhibitors at final concentration of 1 mM, pre-incubated at 37° C. for 1 hour; fluorescence in absence of inhibitors = 100%
# Method: RNA was extracted from the midgut of virus-infected honey bees using ISOGEN II (Nippon Gene Co., Ltd.), and the extracted RNA was reverse-transcripted using PrimeScript RT reagent Kit (Takara) to obtain midgut-derived cDNA. Subsequently, the midgut-derived cDNA was subjected to PCR reaction (30 cycles of 98° C. for 30 seconds, 60° C. for 30 seconds, and 68° C. for 2 minutes) using KOD FX Neo (TOYOBO Co., Ltd.) with IAPV Protease Primer-F1 (SEQ ID NO: 59) and IAPV Protease Primer-R (SEQ ID NO: 60). As a result, a cDNA fragment of IAPV protease was obtained, consisting of the base sequence of SEQ ID NO: 57 encoding the amino acid sequence of SEQ ID NO: 58. The cDNA fragment of the IAPV protease was subjected to restriction enzyme treatment with BamHI and HindIII. The expression vector pET21a (Merck) was also subjected to restriction enzyme treatment with BamHI and HindIII. The restriction enzyme-treated cDNA fragment of the IAPV protease and the restriction enzyme-treated pET21a DNA fragment were subjected to a ligation reaction at 16° C. for 1 hour using Ligation High Ver. 2 (TOYOBO Co., Ltd.) to join the vector and the cDNA fragment, and the ligation product was used to transform E. coli. Colony PCR was performed, and an expression vector containing the cDNA fragment of the IAPV protease was obtained. E. coli Rosseta-gami B (Merck) was transformed with the expression vector of the IAPV protease. A preculture was prepared in 50 ml of LB medium containing ampicillin, followed by subculturing in 500 ml of LB medium containing ampicillin. Then, the culture was grown until the absorbance at 600 nm reached 0.5, at which point isopropyl β-D-thiogalactopyranoside (IPTG) was added to a final concentration of 1 mM. The culture was then incubated at 15° C. for 24 hours. The culture was centrifuged (8000 rpm, 10 minutes, 4° C.) to collect E. coli cells. The collected E. coli cells were dissolved in 10 ml of a sonication buffer (50 mM Tris-HCl, pH 8.0; 50 mM NaCl; 1 mM EDTA; 1 mM DTT), and disrupted by ultrasonic disruption (sonication). The disruption solution was centrifuged (12000 rpm, 10 minutes, 4° C.) to obtain a supernatant of this bacterial cell disruption solution. The IAPV protease was then purified from the resulting supernatant to yield a purified protein solution. Purification was carried out by cation exchange chromatography using HiPrep SP XL 16/10 (Cytiva) with a 20 mM Tris-HCl (pH 7.5) buffer and a 20 mM Tris-HCl (pH 7.5) buffer containing 1 M NaCl, and by gel filtration chromatography using HiLoad 16/600 Superdex 200 (Cytiva) with a 50 mM phosphate buffer (pH 7.0) containing 0.15 M NaCl.
# As a substrate for the measurement of IAPV protease activity, either Dnp-PNDIV DVTMQK(Nma)-NH2 or Nma-[…] (Dnp)-NH2, in which a peptide was linked to a fluorescent substrate, was synthesized and used. When the activity measurement substrate is cleaved by the protease, it emits fluorescence. The activity measurement substrate was prepared at a concentration of 20 μM in an assay buffer (50 mM citric acid buffer, pH 6.0; 150 mM NaCl; 1 mM EDTA; 1 mM DTT). The purified protein solution of the IAPV protease obtained in Example 10 was used as the enzyme solution. 50 μl of the assay buffer containing the activity measurement substrate was mixed with 50 μl of the enzyme solution, and the mixture was reacted at 37° C. for 30 minutes in a 96-well black plate, in the presence or absence of various inhibitors listed in Table 4. Fluorescence intensity was then measured using a TECAN fluorescence plate reader (Tecan Japan Co., Ltd.) at an excitation wavelength of 340 nm and a fluorescence emission wavelength of 440 nm. The various inhibitors were prepared at a final concentration of 1 mM and pre-incubated at 37° C. for 1 hour prior to the enzymatic reaction.
# [1] = tested on: virus-infected honey bees; experiment: Suppression of individual honey bee mortality by agent administration (aseptic in vivo agent evaluation rearing method); conditions: for viability compared to the control group: 100 μM in 50% sucrose solution, virus-infected honey bee population No. 2, FIG. 15
# Method: A new aseptic in vivo agent evaluation rearing method for honey bees was established. Incubators and rearing boxes were sterilized with 70% ethanol after cleaning. Each hive box was populated with 30 to 35 honey bees. The honey bees were fed with a 50% sucrose solution (aseptically dissolved in sterile water) and a 50% sucrose solution containing pollen dissolved therein. The rearing temperature was maintained at 30° C. The 50% sucrose solutions were replaced daily, and the number of individual honey bees was measured at each replacement. Agents were administered dissolved in the 50% sucrose solutions. At the time when the viability had decreased to 50% or less of the initial level, total RNA was collected from the surviving individuals, and histochemical analyses were performed on the midgut and other tissues. Pharmacological analyses were conducted using the collected RNA, tissues, and blood.
# E-64 ([(2S,3S)-3-carboxyoxirane-2-carbonyl]-L-leucine (4-guanidinobutyl)amide hemihydrate, manufactured by PEPTIDE INSTITUTE, INC.) was dissolved in a 50% sucrose solution at concentrations of 200 μM, 100 μM, and 50 μM. The resulting solutions were administered to honey bees in the honey bee populations Nos. 2 and 5, in which viral infection had been observed. Only 50% sucrose was administered to a control group (None). The E-64-containing solutions were replaced daily, and changes in the number of individual honey bees were measured at each replacement. FIGS. 9 and 10 show the results. Rearing was conducted using the aseptic in vivo agent evaluation rearing method, which has been described above.
# E-64c (manufactured by PEPTIDE INSTITUTE, INC.) or E-64d (manufactured by PEPTIDE INSTITUTE, INC.) was dissolved in a 50% sucrose solution at a concentration of 100 μM. The resulting solutions were administered to honey bees in the honey bee population No. 2, in which viral infection had been observed. […] The solution containing E-64c or E-64d was replaced daily, and changes in the number of individual honey bees were measured at each replacement. […]
# [2] = tested on: fusion protein of Maltose Binding Protein (MBP)-IAPV protease; experiment: IAPV protease activity measurement using crude enzyme solution of expressed MBP-IAPV protease fusion protein; assay type: biochemical, Israeli acute paralysis virus (IAPV); conditions: in the presence of E-64, absence of E-64 = 100%
# Method: Midgut-derived cDNA was obtained from virus-infected honey bees in the same manner as in Example 10 and then subjected to PCR reaction (30 cycles of 98° C. for 30 seconds, 60° C. for 30 seconds, and 68° C. for 2 minutes) using KOD FX Neo (TOYOBO Co., Ltd.) with IAPV Protease Primer-F2 (SEQ ID NO: 61) and IAPV Protease Primer-R (SEQ ID NO: 60). As a result, a cDNA fragment of IAPV protease was obtained, consisting of the base sequence of SEQ ID NO: 57 encoding the amino acid sequence of SEQ ID NO: 58. The cDNA fragment of the IAPV protease was subjected to restriction enzyme treatment with BamHI and HindIII. […] Then, the culture was grown until the absorbance at 600 nm reached 0.5, at which point IPTG was added to a final concentration of 1 mM. […]
# Subsequently, using a crude enzyme solution of the expressed fusion protein of IAPV protease as the enzyme solution, the IAPV protease activity was measured using the same method as in Example 11, in the presence or absence of E-64.
# The fluorescence intensity measured in the absence of E-64 was reduced by the addition of E-64. When the fluorescence intensity measured in the absence of E-64 is defined as 100% relative activity, the relative activity of IAPV protease calculated from the fluorescence intensity measured in the presence of E-64 was 9% (FIG. 14). […]
# [3] = tested on: virus-infected honey bees; experiment: Recovery from intestinal tract damage in honey bees (BPB administration test); assay type: in vivo; conditions: E-64 100 μM in 50% sucrose, reared 10 days; BPB 10 mg/ml for 24 hours; FIG. 13
# Method: Virus-infected and uninfected honey bees were reared for 10 days while receiving 50% sucrose. During the rearing period, Bromophenol Blue (BPB) (FUJIFILM Wako Pure Chemical Corporation) was dissolved in a 50% sucrose solution at a concentration of 10 mg/ml and administered to the virus-infected and uninfected honey bees for 24 hours. When the viability of the virus-infected group had decreased to approximately 50%, relative to the number of individual honey bees before rearing set to 100%, BPB was administered to each group of honey bees. After BPB administration, blood was collected from honey bees (≥30 individuals), and the concentration of BPB in the blood was measured by absorbance at 500 nm using a microvolume spectrophotometer, NanoDrop One (ThermoFisher Scientific).
# Virus-infected honey bees were divided into a control group (None) to which 50% sucrose was administered, and an administered group (E-64) to which a solution of E-64 (PEPTIDE INSTITUTE, INC.) dissolved at 100 μM in 50% sucrose was administered. The honey bees were reared for 10 days. […] After BPB administration, blood was collected from honey bees (≥30 individuals), and the concentration of BPB in the blood was measured by absorbance at 500 nm using a microvolume spectrophotometer, NanoDrop One (ThermoFisher Scientific).
compound,measurement,setting,value
"CCCNC(=O)[C@H]1O[C@@H]1C(=O)N[C@H](C(=O)N1CCC[C@H]1C(=O)OC)[C@@H](C)CC [CA074 methyl ester, [(2S,3S)-3-propylcarbamoyloxirane-2-carbonyl]-L-isoleucyl-L-proline methyl ester]",Relative Activity (%) of IAPV protease,IAPV protease,32%
"CCCNC(=O)[C@H]1O[C@@H]1C(=O)N[C@H](C(=O)N1CCC[C@H]1C(=O)O)[C@@H](C)CC [CA074, [(2S,3S)-3-propylcarbamoyloxirane-2-carbonyl]-L-isoleucyl-L-proline]",Relative Activity (%) of IAPV protease,IAPV protease,4%
"CC(C)CCNC(=O)[C@H](CC(C)C)NC(=O)[C@H]1O[C@@H]1C(=O)O [E-64c, [(2S,3S)-3-carboxyoxirane-2-carbonyl]-L-leucine (3-methylbutyl)amide]",Relative Activity (%) of IAPV protease,IAPV protease,22%
same,viability compared to the control group,[1],higher viability compared to the control group
"CCOC(=O)[C@H]1O[C@@H]1C(=O)N[C@@H](CC(C)C)C(=O)NCCC(C)C [E-64d, [(2S,3S)-3-ethoxycarbonyloxirane-2-carbonyl]-L-leucine (3-methylbutyl)amide]",Relative Activity (%) of IAPV protease,IAPV protease,23%
same,viability compared to the control group,[1],higher viability compared to the control group
CCOC(=O)[C@H]1O[C@@H]1C(=O)N[C@@H](CC(C)C)C(=O)NCCc1ccc(O)cc1 [JPM-OEt],Relative Activity (%) of IAPV protease,IAPV protease,17%
"O=C(O)c1cc2ccccc2s1 [TNCA, benzo[b]thiophene-2-carboxylic acid]",Relative Activity (%) of IAPV protease,IAPV protease,71%
O=C(NC1CC1)C(=O)C(Cc1ccccc1)NC(=O)[C@H]1CCC(=O)N1Cc1ccccc1 (some centres unmarked) [alicapistat],Relative Activity (%) of IAPV protease,IAPV protease,22%
Cc1nc(-c2ccccc2F)c(C(=O)NC(Cc2ccccc2)C(=O)C(N)=O)o1 (centres unmarked) [dazcapistat],Relative Activity (%) of IAPV protease,IAPV protease,29%
"[(2S,3S)-3-carboxyoxirane-2-carbonyl]-L-leucine (4-guanidinobutyl)amide hemihydrate [E-64]",Relative Activity (%) of IAPV protease,IAPV protease,5%
same,relative activity of IAPV protease,[2],9%
same,individual honey bee mortality (viability),"[1]; E-64 at 200 μM, 100 μM, 50 μM in 50% sucrose solution, virus-infected honey bee populations Nos. 2 and 5, FIGS. 9 and 10",suppressed individual honey bee mortality
same,concentration of BPB in the blood (absorbance at 500 nm),[3],reduced the concentration of BPB in the blood
